{"source": "patent US8138153B2", "about": "“Potassium channel modulator peptide” (National Centre for Biological Sciences, priority 2004, dated 2012)", "system": "K^+ currents (voltage dependent potassium channels) in DRG neurons", "assay_type": "cell-based, Wistar rats", "note": "Entries after “also recorded” stand apart in the source; their conditions may differ.", "data": [{"substance": "FHGGSWYRFPWGY-NH2 [Mo1659]", "values": [{"measurement": "Effect on sustained (non-inactivating) K^+ current component", "value": "predominantly affects the sustained K^+ current component; also recorded: specifically acts on the non-inactivating K^+ currents"}]}]}
